PubChem BioAssay (NCI)
Values joined by “and” are separate entries in the source; they are usually repeats but may differ in a detail not shown here. Equal entries are not always repeated.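 Growth conditions: 96-well plates. Treatment: test compound, 48 hours, 5 concentrations. Analysis: linear interpolation between bracketing concentrations; unreached endpoints set to highest concentration. GI50 marks 50% less growth. TGI is the concentration that stops growth completely.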

Experiments:
Test in all cases: inhibition of tumour cell growth, NCI panel, 48 h
HCC-2998 colon = test system: HCC-2998 colon
OVCAR-8 ovarian = test system: OVCAR-8 ovarian
SK-MEL-28 melanoma = test system: SK-MEL-28 melanoma
BT-549 breast = test system: BT-549 breast
KM12 colon = test system: KM12 colon
COLO 205 colon = test system: COLO 205 colon
T-47D breast = test system: T-47D breast
NCI-H23 lung = test system: NCI-H23 lung
SF-295 CNS = test system: SF-295 CNS
UACC-257 melanoma = test system: UACC-257 melanoma

SMILES	GI50 (HCC-2998 colon)	TGI (HCC-2998 colon)	GI50 (OVCAR-8 ovarian)	TGI (OVCAR-8 ovarian)	GI50 (SK-MEL-28 melanoma)	TGI (SK-MEL-28 melanoma)	GI50 (BT-549 breast)	TGI (BT-549 breast)	GI50 (KM12 colon)	TGI (KM12 colon)	GI50 (COLO 205 colon)	TGI (COLO 205 colon)	GI50 (T-47D breast)	TGI (T-47D breast)	GI50 (NCI-H23 lung)	TGI (NCI-H23 lung)	GI50 (SF-295 CNS)	TGI (SF-295 CNS)	GI50 (UACC-257 melanoma)	TGI (UACC-257 melanoma)
Cc1ccc2c(-c3ccnc(Nc4cccc(C(F)(F)F)c4)n3)c(-c3ccccc3)nn2n1	5.99 µM	16.1 µM	9.27 µM	> 25 µM	> 15.4 µM	> 25 µM	15 µM	> 24 µM	11.1 µM	> 18.3 µM	4.04 µM	> 25 µM	6.95 µM	> 23.7 µM	11.8 µM	> 25 µM	> 13.4 µM	> 25 µM	8.31 µM	> 16.6 µM
CC[C@@]1(O)C(=O)OCc2c1cc1n(c2=O)Cc2cc3cc(O)ccc3nc2-1	0.0589 µM and 0.0721 µM	0.912 µM and 0.847 µM	–	2.47 µM and 0.477 µM	0.166 µM and 0.264 µM	10 µM and > 38.9 µM	–	26.6 µM	0.127 µM and 0.142 µM	2.34 µM and 5.38 µM	0.573 µM	2.36 µM and 2.56 µM	–	> 100 µM	–	0.109 µM and 0.0424 µM	0.0282 µM and 0.029 µM	0.799 µM and 3.91 µM	0.047 µM and 0.156 µM	0.481 µM and 2.1 µM
COC(=O)NC1=Nc2ccccc2C(=O)NN1	–	> 100 µM	–	> 100 µM	–	> 100 µM	–	> 100 µM	–	> 100 µM	–	> 100 µM	–	> 100 µM	–	> 100 µM	–	> 100 µM	–	> 100 µM
C=CCc1cc(O)ccc1O	> 100 µM	> 100 µM	28.7 µM	> 100 µM	> 100 µM	> 100 µM	6.16 µM	> 100 µM	13.2 µM	65.1 µM	> 100 µM	> 100 µM	16.9 µM	84.4 µM	> 100 µM	> 100 µM	49.5 µM	> 100 µM	> 100 µM	> 100 µM
C=C(CC)C(=O)c1ccc(OCC(=O)O)c(Cl)c1Cl	–	35.4 µM	–	37.2 µM	–	33.6 µM	–	17.2 µM	–	21.4 µM	–	33.1 µM	–	27.6 µM	–	> 56.2 µM	–	> 100 µM	–	55.4 µM
Nc1nc(N)c2c(Cl)c(CNc3ccc(Cl)c(Cl)c3)ccc2n1	–	2.05 µM	–	16 µM	–	18.7 µM	–	19.1 µM	–	3.19 µM	–	13 µM	–	23.3 µM	–	5.43 µM	–	12.2 µM	–	19.4 µM
CCc1nc(N)nc(N)c1-c1ccc(N2CCNCC2)c([N+](=O)[O-])c1	–	58.8 µM	–	> 100 µM	–	> 100 µM	–	> 100 µM	–	> 100 µM	–	40.5 µM	–	> 100 µM	–	> 100 µM	–	> 100 µM	–	57.7 µM
Cn1ccc(S(=O)(=O)N2CCC[C@H](Nc3nccc(-c4c(-c5cccc(O)c5)nc5occn45)n3)C2)n1	15 µM	34.3 µM	18.9 µM	> 100 µM	0.0938 µM	20.5 µM	12.7 µM	52.9 µM	18.3 µM	> 86.9 µM	0.0913 µM	28.6 µM	18.5 µM	70.5 µM	12 µM	41.8 µM	22.3 µM	62.1 µM	0.224 µM	90.7 µM
CCN(CC)CCN1C(=O)c2c(c3c4cccc(Cl)c4n(C4OC(CO)C(OC)C(O)C4O)c3c3[nH]c4c(Cl)cccc4c23)C1=O (centres undefined)	0.000104 µM and < 0.0299 µM and < 0.01 µM	–	< 0.0001 µM	–	–	–	–	1.66 µM	0.000316 µM and < 0.0231 µM and < 0.01 µM	–	–	–	–	2.26 µM	0.000398 µM and < 0.0329 µM and < 0.01 µM	–	0.000169 µM	–	–	–
CCN1C[C@@H](C)n2c(c(O)c3c(=O)n(Cc4ccc(F)c(Cl)c4)nc(C(=O)NC)c32)C1=O	2.54 µM	6.08 µM	3.34 µM	> 100 µM	2.69 µM	7.17 µM	3.49 µM	> 100 µM	2.73 µM	7.71 µM	18.3 µM	40.3 µM	3.57 µM	> 100 µM	2.7 µM	8.62 µM	2.88 µM	> 100 µM	2.32 µM	6.77 µM
COc1cc(C(=O)/C=C/c2cccnc2Nc2ccc(Cl)cc2)cc(OC)c1OC	1.52 µM	2.89 µM	1.63 µM	4.31 µM	1.72 µM	3.12 µM	1.5 µM	2.85 µM	1.83 µM	3.55 µM	1.83 µM	3.47 µM	1.42 µM	3.24 µM	1.58 µM	3.24 µM	1.93 µM	3.97 µM	1.5 µM	2.92 µM
CCN(CC)Cc1cc(Nc2ccnc3ccc(OC)cc23)ccc1O	2.35 µM	7.1 µM	7.21 µM	34.5 µM	3.4 µM	10.4 µM	9.53 µM	27.9 µM	3.21 µM	16 µM	1.63 µM	3.67 µM	5.69 µM	44.7 µM	7.46 µM	26.5 µM	2.39 µM	7.64 µM	–	–
Oc1ccc(/C=N/NC(=S)Nc2ccccc2)nc1	4.09 µM	> 100 µM	0.586 µM	> 100 µM	3.14 µM	> 100 µM	1.7 µM	> 100 µM	1.91 µM	> 100 µM	3.31 µM	> 100 µM	1.54 µM	> 100 µM	3.34 µM	> 100 µM	–	–	2.18 µM	6.84 µM
N#Cc1c(-c2ccccc2)nc(SCC(O)CN2CCOCC2)nc1N1CCOCC1 (centres undefined)	47 µM	> 100 µM	11.4 µM	> 100 µM	11.2 µM	> 100 µM	7.26 µM	> 100 µM	30.2 µM	> 100 µM	29.6 µM	84.6 µM	1.33 µM	6.03 µM	37.5 µM	> 100 µM	5.49 µM	> 100 µM	2.88 µM	45.7 µM
